Test results from ChEMBL document CHEMBL5465560, “Selectivity Literature for EUbOPEN Chemogenomic Library” (2024).
Blank lines part the entries; values can stand above or below the molecule they belong to.

How the values were obtained:
[1] = target: T1, Inhibitor of nuclear factor kappa-B kinase subunit alpha (Homo sapiens) (UniProt O15111); assay: Selectivity interaction (Adapta Assay) EUB0001632a CHUK; conditions: at 10 µM
T1 sequence (whole entry): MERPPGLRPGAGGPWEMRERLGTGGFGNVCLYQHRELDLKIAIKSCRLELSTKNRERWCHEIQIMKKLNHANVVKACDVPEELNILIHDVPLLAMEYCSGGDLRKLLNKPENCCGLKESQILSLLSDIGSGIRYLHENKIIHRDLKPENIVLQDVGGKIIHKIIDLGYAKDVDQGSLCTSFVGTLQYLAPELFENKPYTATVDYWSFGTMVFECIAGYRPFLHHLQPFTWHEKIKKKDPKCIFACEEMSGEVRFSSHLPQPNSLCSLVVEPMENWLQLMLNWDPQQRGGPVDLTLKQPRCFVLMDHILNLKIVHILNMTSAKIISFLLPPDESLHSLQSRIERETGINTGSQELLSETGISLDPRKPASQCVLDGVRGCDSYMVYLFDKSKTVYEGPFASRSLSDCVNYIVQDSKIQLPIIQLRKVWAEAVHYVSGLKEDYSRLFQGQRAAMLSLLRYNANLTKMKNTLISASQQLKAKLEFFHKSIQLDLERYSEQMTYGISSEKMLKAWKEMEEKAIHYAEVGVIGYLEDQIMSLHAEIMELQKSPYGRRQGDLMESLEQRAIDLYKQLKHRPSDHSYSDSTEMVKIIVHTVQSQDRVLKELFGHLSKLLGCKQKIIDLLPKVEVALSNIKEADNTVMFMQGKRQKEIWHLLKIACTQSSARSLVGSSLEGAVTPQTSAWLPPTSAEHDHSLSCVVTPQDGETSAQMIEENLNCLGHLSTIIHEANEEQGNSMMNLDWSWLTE

[2] = target: Non-receptor tyrosine-protein kinase TYK2 (Homo sapiens, UniProt P29597); assay: Selectivity interaction (Kinase panel (33PanQinase(R) Activity Assay)) EUB0000877a TYK2
Sequence of Non-receptor tyrosine-protein kinase TYK2 (P29597 whole entry): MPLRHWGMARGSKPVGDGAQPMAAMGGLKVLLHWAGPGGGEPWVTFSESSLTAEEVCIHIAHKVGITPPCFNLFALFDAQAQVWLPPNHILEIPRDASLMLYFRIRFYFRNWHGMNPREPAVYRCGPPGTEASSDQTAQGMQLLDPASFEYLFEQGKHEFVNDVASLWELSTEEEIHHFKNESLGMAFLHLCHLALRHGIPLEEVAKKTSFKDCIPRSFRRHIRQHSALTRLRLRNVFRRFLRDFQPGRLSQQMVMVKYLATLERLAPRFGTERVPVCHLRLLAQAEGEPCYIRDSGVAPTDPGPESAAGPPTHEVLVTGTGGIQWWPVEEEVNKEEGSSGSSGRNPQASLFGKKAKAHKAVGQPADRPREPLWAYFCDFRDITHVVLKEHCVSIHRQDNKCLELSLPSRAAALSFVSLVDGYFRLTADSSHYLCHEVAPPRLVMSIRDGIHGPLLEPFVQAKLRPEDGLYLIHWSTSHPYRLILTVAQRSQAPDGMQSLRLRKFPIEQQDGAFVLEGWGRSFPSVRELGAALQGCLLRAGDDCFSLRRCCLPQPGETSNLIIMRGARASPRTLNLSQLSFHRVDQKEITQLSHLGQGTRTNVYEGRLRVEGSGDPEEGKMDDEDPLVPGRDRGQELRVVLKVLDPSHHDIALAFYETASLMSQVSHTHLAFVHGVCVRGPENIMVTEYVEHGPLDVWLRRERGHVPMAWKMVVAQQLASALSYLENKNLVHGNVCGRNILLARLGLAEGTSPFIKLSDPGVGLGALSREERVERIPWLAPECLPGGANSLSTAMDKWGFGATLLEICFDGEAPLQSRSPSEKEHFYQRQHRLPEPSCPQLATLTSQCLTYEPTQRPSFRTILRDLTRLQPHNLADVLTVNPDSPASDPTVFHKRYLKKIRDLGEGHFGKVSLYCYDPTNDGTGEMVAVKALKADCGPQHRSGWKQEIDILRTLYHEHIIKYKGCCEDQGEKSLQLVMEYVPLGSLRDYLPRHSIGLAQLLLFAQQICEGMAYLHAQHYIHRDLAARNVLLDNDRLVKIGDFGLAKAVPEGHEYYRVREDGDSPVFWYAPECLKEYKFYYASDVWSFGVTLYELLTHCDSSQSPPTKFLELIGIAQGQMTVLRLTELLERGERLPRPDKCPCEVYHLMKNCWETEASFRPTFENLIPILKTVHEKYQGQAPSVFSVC

[3] = target: Cyclin-dependent kinase 7 (Homo sapiens, UniProt P50613); assay: Selectivity interaction (ActivX KiNativ screen (kinase selectivity in THP-1 cell lysates)) EUB0000639a CDK7; type: subcellular; conditions: lysate
Sequence of Cyclin-dependent kinase 7 (P50613 whole entry): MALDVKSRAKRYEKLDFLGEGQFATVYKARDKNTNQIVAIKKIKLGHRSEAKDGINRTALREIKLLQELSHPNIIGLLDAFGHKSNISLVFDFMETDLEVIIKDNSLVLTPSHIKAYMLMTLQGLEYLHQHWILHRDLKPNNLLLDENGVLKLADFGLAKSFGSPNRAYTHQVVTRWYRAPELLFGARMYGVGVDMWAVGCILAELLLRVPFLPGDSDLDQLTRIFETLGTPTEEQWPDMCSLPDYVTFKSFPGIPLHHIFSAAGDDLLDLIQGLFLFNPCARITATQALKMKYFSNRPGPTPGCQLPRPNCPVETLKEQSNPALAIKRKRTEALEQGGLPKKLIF

[4] = target: Serine/threonine-protein kinase WNK2 (Homo sapiens) (UniProt Q9Y3S1); assay: Selectivity interaction (ActivX KiNativ screen (kinase selectivity in THP-1 cell lysates)) EUB0000639a WNK2; type: subcellular; conditions: lysate, at 5 µM
[5] = target: Histone-lysine N-methyltransferase PRDM9 (Homo sapiens) (UniProt Q9NQV7); assay: Selectivity interaction (Methyltransferase screen (radiometric assays, panel of 8 PRMTs, 21 protein lysine methyltransferases, 3 DNA methyltransferases, and one RNA methyltransferase)) EUB0000271b PRDM9
Sequence of Histone-lysine N-methyltransferase PRDM9 (Homo sapiens) (Q9NQV7 whole entry): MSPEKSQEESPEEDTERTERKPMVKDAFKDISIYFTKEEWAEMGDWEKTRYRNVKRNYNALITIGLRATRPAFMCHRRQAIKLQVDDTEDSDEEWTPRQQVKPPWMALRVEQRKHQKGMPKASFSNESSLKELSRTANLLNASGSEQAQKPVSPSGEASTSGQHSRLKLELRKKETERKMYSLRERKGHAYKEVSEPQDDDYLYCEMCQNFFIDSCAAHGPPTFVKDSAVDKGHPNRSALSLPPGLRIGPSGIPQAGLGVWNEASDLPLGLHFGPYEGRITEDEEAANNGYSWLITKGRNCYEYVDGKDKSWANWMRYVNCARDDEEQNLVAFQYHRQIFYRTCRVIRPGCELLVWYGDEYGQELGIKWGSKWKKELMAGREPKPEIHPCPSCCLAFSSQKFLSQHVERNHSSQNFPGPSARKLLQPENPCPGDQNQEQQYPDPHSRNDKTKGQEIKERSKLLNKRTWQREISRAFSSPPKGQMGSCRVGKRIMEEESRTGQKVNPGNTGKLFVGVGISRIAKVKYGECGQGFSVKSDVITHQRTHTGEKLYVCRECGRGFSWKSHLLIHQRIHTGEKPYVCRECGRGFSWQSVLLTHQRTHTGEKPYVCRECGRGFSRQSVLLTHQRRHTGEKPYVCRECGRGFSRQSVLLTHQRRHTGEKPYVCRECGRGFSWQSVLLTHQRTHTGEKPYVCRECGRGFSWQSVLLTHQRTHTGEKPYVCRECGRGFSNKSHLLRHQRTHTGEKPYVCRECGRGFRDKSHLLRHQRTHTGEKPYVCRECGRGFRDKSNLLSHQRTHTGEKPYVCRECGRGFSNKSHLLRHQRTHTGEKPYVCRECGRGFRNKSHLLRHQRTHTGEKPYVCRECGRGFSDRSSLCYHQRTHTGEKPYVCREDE

[6] = target: T2, Tyrosine-protein kinase TXK (Homo sapiens) (UniProt P42681); assay: Selectivity interaction (Ambit KINOMEscan and KiNATiv profiling in Jurkat cells) EUB0000090b TXK; type: cell-based; conditions: at 1 µM
T2 sequence (whole entry): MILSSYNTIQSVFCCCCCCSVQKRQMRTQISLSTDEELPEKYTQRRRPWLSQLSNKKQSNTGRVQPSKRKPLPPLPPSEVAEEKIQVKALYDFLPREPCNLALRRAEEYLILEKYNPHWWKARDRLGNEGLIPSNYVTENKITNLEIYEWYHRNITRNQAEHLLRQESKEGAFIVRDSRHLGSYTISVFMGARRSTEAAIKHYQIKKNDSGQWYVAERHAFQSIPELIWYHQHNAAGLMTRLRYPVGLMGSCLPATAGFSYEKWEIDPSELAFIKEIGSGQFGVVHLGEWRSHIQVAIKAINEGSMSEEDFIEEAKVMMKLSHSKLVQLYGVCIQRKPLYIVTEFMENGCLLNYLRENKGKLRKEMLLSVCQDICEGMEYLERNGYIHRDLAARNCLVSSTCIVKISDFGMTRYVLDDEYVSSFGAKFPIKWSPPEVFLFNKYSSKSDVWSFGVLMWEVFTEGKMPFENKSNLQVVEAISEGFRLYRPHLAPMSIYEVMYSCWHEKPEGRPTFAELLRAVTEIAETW

[7] = target: Tyrosine-protein kinase Fyn (Homo sapiens) (UniProt P06241); assay: Selectivity interaction (Ambit KINOMEscan and KiNATiv profiling in Jurkat cells) EUB0000090b FYN; type: cell-based; conditions: at 1 µM
Sequence of Tyrosine-protein kinase Fyn (Homo sapiens) (P06241 2-537 limits assumed): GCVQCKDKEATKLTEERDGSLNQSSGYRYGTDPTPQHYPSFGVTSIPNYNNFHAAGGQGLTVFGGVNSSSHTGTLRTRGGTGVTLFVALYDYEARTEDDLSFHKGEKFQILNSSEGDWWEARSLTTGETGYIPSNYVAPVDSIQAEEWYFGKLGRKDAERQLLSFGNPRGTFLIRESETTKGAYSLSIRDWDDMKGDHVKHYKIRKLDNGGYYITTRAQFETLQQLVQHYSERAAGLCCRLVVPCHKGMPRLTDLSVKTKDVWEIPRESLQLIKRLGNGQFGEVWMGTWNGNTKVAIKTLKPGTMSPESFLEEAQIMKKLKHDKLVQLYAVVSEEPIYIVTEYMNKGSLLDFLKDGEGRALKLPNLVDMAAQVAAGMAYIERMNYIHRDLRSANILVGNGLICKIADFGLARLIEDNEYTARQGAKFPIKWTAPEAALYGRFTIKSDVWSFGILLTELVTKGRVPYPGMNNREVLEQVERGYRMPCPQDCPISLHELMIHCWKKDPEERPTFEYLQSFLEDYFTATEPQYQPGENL

[8] = target: Serine/threonine-protein kinase 25 (Homo sapiens) (UniProt O00506); assay: Selectivity interaction (KinomeScan (DiscoverX)) EUB0000655a STK25; conditions: at 10 µM
Sequence of Serine/threonine-protein kinase 25 (Homo sapiens) (O00506 whole entry, looked up): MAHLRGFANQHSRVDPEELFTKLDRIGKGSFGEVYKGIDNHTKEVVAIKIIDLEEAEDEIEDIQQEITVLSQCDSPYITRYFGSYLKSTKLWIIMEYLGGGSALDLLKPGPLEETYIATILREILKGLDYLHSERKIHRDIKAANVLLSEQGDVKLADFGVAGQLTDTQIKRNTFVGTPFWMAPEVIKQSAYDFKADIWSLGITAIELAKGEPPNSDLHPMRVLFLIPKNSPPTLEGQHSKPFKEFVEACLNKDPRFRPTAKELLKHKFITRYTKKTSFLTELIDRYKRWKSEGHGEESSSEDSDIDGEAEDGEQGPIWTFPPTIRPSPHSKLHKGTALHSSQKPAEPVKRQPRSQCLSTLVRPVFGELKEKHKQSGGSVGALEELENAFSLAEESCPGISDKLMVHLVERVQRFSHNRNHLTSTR

[9] = target: Dual specificity testis-specific protein kinase 1 (Homo sapiens) (UniProt Q15569); conditions: at 10 µM
Sequence of Dual specificity testis-specific protein kinase 1 (Homo sapiens) (Q15569 whole entry, looked up): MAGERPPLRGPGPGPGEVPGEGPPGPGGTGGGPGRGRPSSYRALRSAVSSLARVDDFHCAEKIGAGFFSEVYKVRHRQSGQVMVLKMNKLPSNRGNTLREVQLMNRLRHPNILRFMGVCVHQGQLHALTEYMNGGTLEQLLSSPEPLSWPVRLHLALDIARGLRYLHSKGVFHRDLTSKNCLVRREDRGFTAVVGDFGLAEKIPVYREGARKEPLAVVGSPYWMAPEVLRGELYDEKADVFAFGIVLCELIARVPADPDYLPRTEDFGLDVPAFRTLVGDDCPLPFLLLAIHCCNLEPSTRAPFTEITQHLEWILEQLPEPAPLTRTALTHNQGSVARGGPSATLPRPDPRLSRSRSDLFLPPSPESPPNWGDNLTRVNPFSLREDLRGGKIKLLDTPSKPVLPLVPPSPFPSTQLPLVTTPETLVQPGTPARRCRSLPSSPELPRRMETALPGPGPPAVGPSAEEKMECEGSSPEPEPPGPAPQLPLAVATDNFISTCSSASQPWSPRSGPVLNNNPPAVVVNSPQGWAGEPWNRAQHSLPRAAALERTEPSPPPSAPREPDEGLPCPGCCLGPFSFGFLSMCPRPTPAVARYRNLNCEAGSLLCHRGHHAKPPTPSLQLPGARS

% of inhibition [1]: 13.7%
Compound: Cn1cc(-n2cnc3c(NCc4nc5cc(Cl)c(Cl)cc5[nH]4)nc(N4CCOCC4)nc32)cn1

IC50 [2]: > 10 µM
Compound: CCC(=O)N1CC[C@H](Nc2ncnc3c2CN(c2cnc(OC)c(C(F)(F)F)c2)CC3)C1 [LENIOLISIB]

% of inhibition ([3]; at 0.01 µM): -17%
% of inhibition ([3]; at 0.04 µM): -0.9%
% of inhibition ([3]; at 0.2 µM): -1.1%
% of inhibition ([3]; at 1 µM): 20.9%
% of inhibition ([3]; at 5 µM): 60%
% of inhibition [4]: -14.5%
Compound: CC[C@@H]1[C@H](F)C(=O)N[C@@H]1COc1nccc2cc(C(N)=O)c(OC)cc12 [ZIMLOVISERTIB]

Compound: Cc1cc(C)cc([C@@H]2c3cc(C)ccc3NC(=O)CN2C(=O)c2ccc(Br)s2)c1
% of activity ([5]; at 1 µM): 102%
% of activity ([5]; at 10 µM): 97%

Compound: CN(C)C/C=C/C(=O)Nc1ccc(C(=O)N2CCCC(Nc3ncc(Cl)c(-c4c[nH]c5ccccc45)n3)C2)cc1 (centres undefined)
% of control [6]: 94%
% of control [7]: 61%

Compound: CN(C)CCOc1ccc(-c2nc(-c3ccncc3)c(-c3ccc4c(c3)CC/C4=N\O)[nH]2)cc1
% of control [8]: 100%

Compound: Cc1cc([C@@H](C)Nc2ccccc2C(=O)O)c2nc(N3CCOCC3)cc(=O)n2c1 [AZD-6482]
% of control [9]: 100%
